16 compounds from patent US12084420B2, “Indoline compounds for inhibiting KIF18A” (Volastra Therapeutics, Inc., priority 2021, dated 2024) can be followed below.

pIC50, pKi: −log10 of the molar value. Read-outs that look alike come from different tables or passages of the source.

The target of series [1] is KIF18a-Microtubule Complex (Homo sapiens (Human), UniProt Q8NI77). In words: Binding kinetics to KIF18a-microtubule complex (global progress curve analysis). The settings on record: for koff (off-rate from binding kinetics assay) / kon (on-rate from binding kinetics assay): global progress curve analysis; for pKi: read-out: KI (determined from binding kinetic assay koff/kon), koff/kon; for koff: read-out: koff (off-rate from binding kinetics assay). The method, then: Binding Kinetics to KIF18a-Microtubule Complex
Sequence of KIF18a-Microtubule Complex (Q8NI77 whole entry, looked up): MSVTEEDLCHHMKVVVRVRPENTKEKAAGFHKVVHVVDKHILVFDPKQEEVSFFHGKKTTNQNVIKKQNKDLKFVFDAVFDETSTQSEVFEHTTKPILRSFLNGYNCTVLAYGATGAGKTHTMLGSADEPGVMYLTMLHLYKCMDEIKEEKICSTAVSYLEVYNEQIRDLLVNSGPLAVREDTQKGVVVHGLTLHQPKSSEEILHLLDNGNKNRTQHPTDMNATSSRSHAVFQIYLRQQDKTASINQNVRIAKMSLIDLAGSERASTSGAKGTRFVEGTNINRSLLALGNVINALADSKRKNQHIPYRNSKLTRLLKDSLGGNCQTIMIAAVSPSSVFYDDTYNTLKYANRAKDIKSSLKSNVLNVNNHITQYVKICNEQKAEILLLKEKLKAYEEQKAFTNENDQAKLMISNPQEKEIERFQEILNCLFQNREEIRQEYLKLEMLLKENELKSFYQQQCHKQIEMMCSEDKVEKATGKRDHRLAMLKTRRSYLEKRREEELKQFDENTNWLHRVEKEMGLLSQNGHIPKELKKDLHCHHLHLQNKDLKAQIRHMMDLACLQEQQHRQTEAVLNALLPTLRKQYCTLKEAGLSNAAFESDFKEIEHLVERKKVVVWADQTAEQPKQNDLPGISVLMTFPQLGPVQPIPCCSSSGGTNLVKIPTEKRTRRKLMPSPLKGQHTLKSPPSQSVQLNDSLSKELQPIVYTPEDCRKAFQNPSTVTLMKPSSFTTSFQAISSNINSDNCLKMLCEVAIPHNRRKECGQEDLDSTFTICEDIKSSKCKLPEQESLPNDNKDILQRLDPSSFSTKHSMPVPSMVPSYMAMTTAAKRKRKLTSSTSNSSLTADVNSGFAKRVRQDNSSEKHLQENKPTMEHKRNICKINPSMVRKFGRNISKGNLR
Sequence of KIF18a-Microtubule Complex (Q2XVP4 whole entry partner, looked up): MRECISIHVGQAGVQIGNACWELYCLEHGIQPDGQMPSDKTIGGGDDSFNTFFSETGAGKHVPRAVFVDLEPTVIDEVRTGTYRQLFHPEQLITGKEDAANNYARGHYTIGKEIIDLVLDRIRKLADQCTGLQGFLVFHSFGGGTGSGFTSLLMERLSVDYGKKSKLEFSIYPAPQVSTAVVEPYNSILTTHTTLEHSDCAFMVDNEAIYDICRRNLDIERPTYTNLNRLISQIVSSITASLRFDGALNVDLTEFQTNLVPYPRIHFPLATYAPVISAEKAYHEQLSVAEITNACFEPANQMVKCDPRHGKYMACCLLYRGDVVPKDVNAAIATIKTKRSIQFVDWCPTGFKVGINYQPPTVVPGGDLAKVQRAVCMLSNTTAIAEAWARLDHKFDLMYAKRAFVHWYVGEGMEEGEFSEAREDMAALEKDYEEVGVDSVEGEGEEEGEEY
Sequence of KIF18a-Microtubule Complex (P02554 whole entry partner, looked up): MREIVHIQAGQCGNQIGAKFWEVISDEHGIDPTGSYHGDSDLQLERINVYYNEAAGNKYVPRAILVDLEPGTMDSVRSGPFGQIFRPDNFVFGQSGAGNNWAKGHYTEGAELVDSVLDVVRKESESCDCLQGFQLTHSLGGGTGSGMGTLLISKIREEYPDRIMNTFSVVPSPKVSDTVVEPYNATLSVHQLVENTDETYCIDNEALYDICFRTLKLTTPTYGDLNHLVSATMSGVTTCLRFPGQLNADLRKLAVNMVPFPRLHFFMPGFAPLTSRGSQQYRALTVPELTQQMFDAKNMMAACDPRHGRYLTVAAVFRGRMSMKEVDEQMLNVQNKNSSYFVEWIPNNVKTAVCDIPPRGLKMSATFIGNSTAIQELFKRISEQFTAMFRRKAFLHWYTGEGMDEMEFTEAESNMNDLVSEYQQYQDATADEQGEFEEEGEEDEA
Compound binding kinetics parameters (kon and koff) were determined by the method of global progress curve analysis (GPCA). […] ADP product levels were determined by the Promega® ADP-Glo assay. The time/dose-dependent progress curves were then globally fit to a Michaelis-Menten kinetics model with 1-step slow binding inhibition to derive both on-rate kon and off-rate koff values (Zhang, R., Wong, K. (2017): “High performance enzyme kinetics of turnover, activation and inhibition for translational drug discovery”, Expert Opinion on Drug Discovery, 2017 January; 12(1):17-37. doi: 10.1080/17460441.2017.1245721).

Series [2] concerns HCC15 cells. In words: Cell viability of KIF18a-sensitive cell lines, HCC15 (Cell Titre-Glo, 7 days). It counts as cell-based. The procedure: (§1) Cell Viability of KIF18a-Sensitive Cell Lines
(§2) Cell lines were seeded as follows 24 hours before compound treatment: HCC15 (Korean Cell Line Bank) 600 cell/well, 95 μL of RPMI-1640 media supplemented with 100 units/mL penicillin, 100 units/mL streptomycin and 10% FBS; NIH:OVCAR-3 (ATCC), 1000 cell/well, 95 μL of RPMI-1640 media supplemented with 100 units/mL penicillin, 100 units/mL streptomycin, 0.01 mg/mL bovine insulin, and 20% FBS; JIMT-1 (Addexbio) 1000 cell/well, 95 μL of DMEM media supplemented with 100 units/mL penicillin, 100 units/mL streptomycin, and 10% FBS.
(§3) Test compounds were added to cells in a 20× dilution scheme by adding 5 μL of serially diluted compound to the plate, and the treated cells were incubated for an additional 7 days in a 37° C., 5% CO2 incubator. DMSO was used as the negative control (0% effect), and wells omitting cells were used as the positive control (100% effect). The cells were incubated for seven days, and cell viability determined via the Promega Cell Titre-Glo® Assay kit. Luminescence units were converted to ATP concentrations via an ATP standard curve (10 point, 2-fold dilution from 5 uM). % Inhibition was calculated for each well as: ([max−min]−[test−min])/[max−min]. IC50 values were calculated from concentration vs. % Inhibition data via a four-parameter variable slope model.

Series [3] deals with NIH:OVCAR-3 cells. In words: Cell viability of KIF18a-sensitive cell lines, NIH:OVCAR-3 (Cell Titre-Glo, 7 days). The series is classed as cell-based. The method, then:
as §1, §2, §3

Series [4] relates to JIMT-1 cells. In words: Cell viability of KIF18a-sensitive cell lines, JIMT-1 (Cell Titre-Glo, 7 days). It counts as cell-based. The procedure:
as §1, §2, §3

Series [5] concerns the target hKIF18A (1-374) (Homo sapiens (Human), UniProt Q8NI77). In words: Inhibition of KIF18A microtubule-dependent ATPase activity (ADP-Glo). Particulars: KIF18A microtubule-dependent ATPase activity, biochemical assay.
Where [6] appears, read: HCC-15 cells, 7 days, Cell Titre-Glo, read-out: HCC-15 IC50.
Where [7] appears, read: NIH-OVCAR3 cells, 7 days, Cell Titre-Glo, read-out: NIH-OVCAR3 IC50.
Where [8] appears, read: JIMT-1 cells, 7 days, Cell Titre-Glo, read-out: JIMT-1 IC50.
Setting [9] is: HCC15, 168 h, HCC-15 cells, 7 days, Cell Titre-Glo, read-out: HCC-15 IC50.
Setting [10] is: Homo sapiens, OVCAR-3, 168 h, NIH-OVCAR3 cells, 7 days, Cell Titre-Glo, read-out: NIH-OVCAR3 IC50.
The mark [11] stands for this setting: Homo sapiens, 168 h, JIMT-1 cells, 7 days, Cell Titre-Glo, read-out: JIMT-1 IC50.

Sequence of hKIF18A (1-374) (Q8NI77 whole entry, looked up): as the sequence (Q8NI77 whole entry, looked up) above
Sequence of hKIF18A (1-374) (Q2XVP4 whole entry partner, looked up): as the sequence (Q2XVP4 whole entry partner, looked up) above
Sequence of hKIF18A (1-374) (P02554 whole entry partner, looked up): as the sequence (P02554 whole entry partner, looked up) above

As for `CS(=O)(=O)Nc1ccc2c(c1)C1(CCC3(CC3)CC1)CN2C(=O)c1cccc(C(O)C2CCCC2)c1` (single isomer, unassigned) [Compound 165a], in series [1], the “koff (off-rate from binding kinetics assay)” value came to 5e-05 s⁻¹. In addition, in series [1], the “kon (on-rate from binding kinetics assay)” value (from here on “kon”) was 11900 M⁻¹ s⁻¹. Also, in series [1] (ln(2)/koff), the “disc. t1/2 (dissociation half-life ln(2)/koff)” value amounted to 3.8 h. Also, the pKi in series [1] is 8.38. Moreover, the pIC50 (commonly the IC50 on a negative log10 scale, so that one unit is a factor of ten) was 7.17 in series [2] (setting [6]), 7.23 in series [3] (setting [7]), 7.35 in series [4] (setting [8]) and 8.06 in series [5].
For `CS(=O)(=O)Nc1ccc2c(c1)C1(CCC3(CC3)CC1)CN2C(=O)c1cccc(C(O)C2CCCC2)c1` (single isomer, unassigned) [Compound 165b], in series [1], the “koff (off-rate from binding kinetics assay)” value is 4.72e-05 s⁻¹. Moreover, the “kon” value in series [1] is 11900 M⁻¹ s⁻¹. In series [1] (ln(2)/koff), the “disc. t1/2 (dissociation half-life ln(2)/koff)” value was determined as 4.2 h. Moreover, the pKi in series [1] was 8.41. Moreover, the pIC50 in series [2] (setting [6]) is 7.34; in series [3] (setting [7]) it was 7.24; in series [4] (setting [8]) it was 7.42; in series [5], 8.00.
For `CS(=O)(=O)Nc1ccc2c(c1)C1(CCC3(CC3)CC1)CN2C(=O)c1cccc(S(=N)(=O)C2CCCC2)c1` (single isomer, unassigned) [Compound 287b], the negative-log IC50 (pIC50) in series [2] (setting [6]) is 7.01; in series [3] (setting [7]) it was 7.48; in series [4] (setting [8]), 7.19; in series [5], 7.92.
For `CS(=O)(=O)Nc1ccc2c(c1)C1(CCC3(CC3)CC1)CN2C(=O)c1cccc([C@@H](O)CC2CCC2)c1` (single isomer, unassigned) [Compound 305a], the “koff (off-rate from binding kinetics assay)” value in series [1] stood at 0.000361 s⁻¹. Moreover, in series [1], the “kon” value is 97200 M⁻¹ s⁻¹. Also, in series [1] (ln(2)/koff), the “disc. t1/2 (dissociation half-life ln(2)/koff)” value was found to be 0.56 h. In addition, the pKi in series [1] is 8.46. Also, the pIC50 in series [2] (setting [6]) is 7.13; in series [3] (setting [7]), 7.05; in series [4] (setting [8]), 7.28; in series [5] it was 8.09.
With `CS(=O)(=O)Nc1ccc2c(c1)C1(CCC3(CC3)CC1)CN2C(=O)c1cccc([C@H](O)CC2CCC2)c1` (single isomer, unassigned) [Compound 305b], the “koff (off-rate from binding kinetics assay)” value in series [1] amounted to 0.000389 s⁻¹. Also, the “kon” value in series [1] was 106000 M⁻¹ s⁻¹. In addition, the “disc. t1/2 (dissociation half-life ln(2)/koff)” value in series [1] (ln(2)/koff) was 0.49 h. Besides, the pKi in series [1] is 8.43. The pIC50 in series [2] (setting [6]) is 7.22; in series [3] (setting [7]) it was 7.16; in series [4] (setting [8]) it was 7.40; in series [5], 8.17.
As to `CS(=O)(=O)Nc1ccc2c(c1)C1(CCC3(CC3)CC1)CN2C(=O)c1ccc([C@H](O)C2CCCC2)o1` (single isomer, unassigned) [Compound 352a], the negative-log IC50 (pIC50) in series [2] (setting [6]) is 7.47; in series [3] (setting [7]) it was 7.35; in series [4] (setting [8]), 7.40.
`CS(=O)(=O)Nc1ccc2c(c1)C1(CCC3(CC3)CC1)CN2C(=O)c1ccc([C@@H](O)C2CCCC2)o1` (single isomer, unassigned) [Compound 352b]: the pIC50 in series [2] (setting [6]) was 7.72; in series [3] (setting [7]) it was 7.57; in series [4] (setting [8]) it was 7.72.
For `Cc1cc(NC(=O)c2ccc(NS(=O)(=O)CCO)cc2N2CCC3(CC2)CC3)nc(N2CCC(F)(F)CC2)n1` [AMG650, 2-{6-azaspiro[2.5]octan-6-yl}-N-[2-(4,4-difluoropiperidin-1-yl)-6-methylpyrimidin-4-yl]-4-(2-hydroxyethanesulfonamido)benzamide, reference compound], the “dissociation t1/2” value in series [1] (ln(2)/koff) is on record as 4.1 h. Further, the pIC50 was 7.18 in series [2] (HCC15, 168 h, read-out: IC50, cell viability HCC-15); 7.00 in series [3] (Homo sapiens, OVCAR-3, 168 h, read-out: IC50, cell viability NIH: OVCAR3); 6.89 in series [4] (Homo sapiens, JIMT-1, 168 h, read-out: IC50, cell viability JIMT-1).
For `CCNc1ccc2c(c1)C1(CCC3(CC3)CC1)CN2C(=O)c1cccc(S(=O)(=O)N2CCC(F)(F)CC2)c1` [Compound 30, (3-((4,4-difluoropiperidin-1-yl)sulfonyl)phenyl)(5″-(ethylamino)dispiro[cyclopropane-1,1′-cyclohexane-4′,3″-indolin]-1″-yl)methanone], the pIC50 was 5.46 in series [2] (setting [9]), 5.84 in series [3] (setting [10]), 5.64 in series [4] (setting [11]) and 6.74 in series [5].
Take `CS(=O)(=O)Nc1ccc2c(c1)C1(CCC3(CC3)CC1)CN2C(=O)c1cccc(S(=O)(=O)N2CC3(CCC3)C2)c1` [Compound 151, N-(1″-(3-((2-azaspiro[3.3]heptan-2-yl)sulfonyl)benzoyl)dispiro[cyclopropane-1,1′-cyclohexane-4′,3″-indolin]-5″- yl)methanesulfonamide]: in series [1], the “kon” value was found to be 26700 M⁻¹ s⁻¹, the pKi was 9.92 and the koff (usually the first-order rate constant of dissociation) is 3.06e-06 s⁻¹. Further, the “disc. t1/2 (dissociation half-life ln(2)/koff)” value in series [1] (ln(2)/koff) came to 61 h. In series [2] (setting [9]), the pIC50 is 7.89. The compound also had a pIC50 in series [5] of 8.17.
Consider `CS(=O)(=O)Nc1ccc2c(c1)C1(CCCCC1)CN2C(=O)c1cccc(C(O)C2CCCC2)c1` (stereo not shown) [Compound 157, N-(1′-(3-(cyclopentyl(hydroxy)methyl)benzoyl)spiro[cyclohexane-1,3′-indolin]-5′-yl)methanesulfonamide], for which the pIC50 in series [2] (setting [9]) was 6.22; in series [3] (setting [10]), 6.14; in series [4] (setting [11]), 6.36; in series [5], 7.24.
In the case of `CS(=O)(=O)Nc1ccc2c(c1)C1(CCC3(CC3)CC1)CN2C(=O)c1cccc(CN2CCC(F)(F)CC2)c1` [Compound 163, N-(1″-(3-((4,4-difluoropiperidin-1-yl)methyl)benzoyl)dispiro[cyclopropane-1,1′-cyclohexane-4′,3″-indolin]-5″- yl)methanesulfonamide], the pIC50 in series [2] (setting [9]) is 6.85; in series [3] (setting [10]), 6.72; in series [4] (setting [11]), 6.92; in series [5], 7.70.
Consider `CC1(NS(=O)(=O)c2cccc(C(=O)N3CC4(CCC5(CC5)CC4)c4cc(NS(C)(=O)=O)ccc43)c2)CCC1` [Compound 182, N-(1-methylcyclobutyl)-3-(5″- (methylsulfonamido)dispiro[cyclopropane-1,1′-cyclohexane-4′,3″-indoline]-1″-carbonyl)benzenesulfonamide], for which, in series [1], the “kon” value is 30600 M⁻¹ s⁻¹, the pKi was 9.59 and the koff is 8.06e-06 s⁻¹. For the same compound, in series [1] (ln(2)/koff), the “disc. t1/2 (dissociation half-life ln(2)/koff)” value was 24 h. Moreover, the pIC50 in series [2] (setting [9]) was 7.82. In series [5], this compound gave a pIC50 of 8.14.
With `CC(C)(C)NS(=O)(=O)c1cccc(C(=O)N2CC3(CCC4(CC4)CC3)c3cc(NS(C)(=O)=O)c(F)cc32)c1` [Compound 309, N-(tert-butyl)-3-(6″-fluoro-5″-(methylsulfonamido)dispiro[cyclopropane-1,1′-cyclohexane-4′,3″-indoline]-1″-carbonyl)benzenesulfonamide], the pIC50 in series [2] (setting [9]) is 7.92; in series [3] (setting [10]), 7.92; in series [4] (setting [11]) it was 8.03; in series [5] it was 8.19.
On to `CC(C)(C)NS(=O)(=O)c1cccc(C(=O)N2CC3(CCC4(CC4)CC3)c3c2ccc(NS(C)(=O)=O)c3F)c1` [Compound 310, N-(tert-butyl)-3-(4″-fluoro-5″-(methylsulfonamido)dispiro[cyclopropane-1,1′-cyclohexane-4′,3″-indoline]-1″-carbonyl)benzenesulfonamide], for which the pIC50 was 7.96 in series [2] (setting [9]), 8.04 in series [3] (setting [10]), 8.10 in series [4] (setting [11]) and 8.18 in series [5].
On to `CC(C)(C)S(=O)(=O)Nc1cccc(C(=O)N2CC3(CCC4(CC4)CC3)c3cc(NS(C)(=O)=O)ccc32)c1` [Compound 355, 2-methyl-N-(3-(5″-(methylsulfonamido)dispiro[cyclopropane-1,1′-cyclohexane-4′,3″-indoline]-1″-carbonyl)phenyl)propane-2-sulfonamide], for which the pIC50 in series [2] (setting [9]) is 7.03; in series [3] (setting [10]) it was 6.96; in series [4] (setting [11]), 6.92; in series [5], 7.60.
